Data reported in the supplement of paper PMC10307832.

Compound: CN(c1ncccc1CNc1nc(Nc2ccc3c(c2)CC(=O)N3)ncc1C(F)(F)F)S(C)(=O)=O + COc1cc2c(Oc3ccc(NC(=O)C4(C(=O)Nc5ccc(F)cc5)CC4)cc3F)ccnc2cc1OCCCN1CCOCC1 [Foretinib] (partner 0.25 µM)
Assay: relative viability (nuclei count vs DMSO), 5 days (fraction); higher = more cells survive
How it was run: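 A single step with final 0.05% Triton X-100, 1% formaldehyde and 1 ug/ml Hoechst fixed the cells and stained nuclei 5 days after treatment. Lung cancer cell lines in 1536-well plates had been treated by pin tool the day after seeding with one drug alone or a fixed anchor-drug dose plus five library-drug doses (not always all listed) in √10 steps, and nuclei were counted on 4× images. Relative viability is the ratio of nuclei in treated wells to nuclei in vehicle wells, taken as the median of duplicate plates.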

Cell Line: EPLC-272H
- relative viability (first compound 0.01 µM): 0.569
- relative viability (first compound 0.03162 µM): 0.776
- relative viability (first compound 0.1 µM): 0.727
- relative viability (first compound 0.3162 µM): 0.844
- relative viability (first compound 1 µM): 0.69

Cell Line: UMC-11
- relative viability (first compound 0.01 µM): 0.972
- relative viability (first compound 0.03162 µM): 1.14
- relative viability (first compound 0.1 µM): 0.953
- relative viability (first compound 0.3162 µM): 1.01
- relative viability (first compound 1 µM): 0.823

Cell Line: NCI-H1993
- relative viability (first compound 0.01 µM): 0.692
- relative viability (first compound 0.03162 µM): 0.994
- relative viability (first compound 0.1 µM): 0.744
- relative viability (first compound 0.3162 µM): 0.75
- relative viability (first compound 1 µM): 0.767

Cell Line: NCI-H596
- relative viability (first compound 0.01 µM): 0.848
- relative viability (first compound 0.03162 µM): 0.859
- relative viability (first compound 0.1 µM): 0.863
- relative viability (first compound 0.3162 µM): 0.806
- relative viability (first compound 1 µM): 0.861

Cell Line: NCI-H1793
- relative viability (first compound 0.01 µM): 0.58
- relative viability (first compound 0.03162 µM): 0.641
- relative viability (first compound 0.1 µM): 0.667
- relative viability (first compound 0.3162 µM): 0.449
- relative viability (first compound 1 µM): 0.523

Cell Line: NCI-H1563
- relative viability (first compound 0.01 µM): 0.996
- relative viability (first compound 0.03162 µM): 0.907
- relative viability (first compound 0.1 µM): 1.04
- relative viability (first compound 0.3162 µM): 0.899
- relative viability (first compound 1 µM): 0.863

Cell Line: NCI-H1395
- relative viability (first compound 0.01 µM): 0.985
- relative viability (first compound 0.03162 µM): 1.12
- relative viability (first compound 0.1 µM): 0.952
- relative viability (first compound 0.3162 µM): 0.849
- relative viability (first compound 1 µM): 0.954

Cell Line: NCI-H1299
- relative viability (first compound 0.01 µM): 1.12
- relative viability (first compound 0.03162 µM): 1.1
- relative viability (first compound 0.1 µM): 1.05
- relative viability (first compound 0.3162 µM): 1.09
- relative viability (first compound 1 µM): 1.08

Cell Line: HCC-827
- relative viability (first compound 0.01 µM): 0.985
- relative viability (first compound 0.03162 µM): 1.05
- relative viability (first compound 0.1 µM): 1.15
- relative viability (first compound 0.3162 µM): 1.04
- relative viability (first compound 1 µM): 1.05

Cell Line: ChaGo-K-1
- relative viability (first compound 0.01 µM): 0.968
- relative viability (first compound 0.03162 µM): 0.894
- relative viability (first compound 0.1 µM): 0.946
- relative viability (first compound 0.3162 µM): 0.935
- relative viability (first compound 1 µM): 0.782

Cell Line: NCI-H2228
- relative viability (first compound 0.01 µM): 1
- relative viability (first compound 0.03162 µM): 0.995
- relative viability (first compound 0.1 µM): 0.749
- relative viability (first compound 0.3162 µM): 0.927
- relative viability (first compound 1 µM): 0.811

Cell Line: NCI-H2170
- relative viability (first compound 0.01 µM): 1.02
- relative viability (first compound 0.03162 µM): 1.02
- relative viability (first compound 0.1 µM): 1.01
- relative viability (first compound 0.3162 µM): 1.02
- relative viability (first compound 1 µM): 0.949

Cell Line: EMC-BAC-2
- relative viability (first compound 0.01 µM): 0.933
- relative viability (first compound 0.03162 µM): 1.18
- relative viability (first compound 0.1 µM): 0.989
- relative viability (first compound 0.3162 µM): 0.944
- relative viability (first compound 1 µM): 0.943

Cell Line: NCI-H2342
- relative viability (first compound 0.01 µM): 1.15
- relative viability (first compound 0.03162 µM): 0.976
- relative viability (first compound 0.1 µM): 0.927
- relative viability (first compound 0.3162 µM): 0.953
- relative viability (first compound 1 µM): 0.999

Cell Line: A549
- relative viability (first compound 0.01 µM): 0.995
- relative viability (first compound 0.03162 µM): 0.948
- relative viability (first compound 0.1 µM): 0.958
- relative viability (first compound 0.3162 µM): 0.945
- relative viability (first compound 1 µM): 0.933

Cell Line: NCI-H23
- relative viability (first compound 0.01 µM): 0.914
- relative viability (first compound 0.03162 µM): 1.08
- relative viability (first compound 0.1 µM): 1.08
- relative viability (first compound 0.3162 µM): 1.06
- relative viability (first compound 1 µM): 0.861

Cell Line: RERF-LC-KJ
- relative viability (first compound 0.01 µM): 0.867
- relative viability (first compound 0.03162 µM): 1.03
- relative viability (first compound 0.1 µM): 0.861
- relative viability (first compound 0.3162 µM): 0.843
- relative viability (first compound 1 µM): 0.939

Cell Line: NCI-H358
- relative viability (first compound 0.01 µM): 0.717
- relative viability (first compound 0.03162 µM): 0.659
- relative viability (first compound 0.1 µM): 0.782
- relative viability (first compound 0.3162 µM): 0.638
- relative viability (first compound 1 µM): 0.517

Cell Line: LC-2-ad
- relative viability (first compound 0.01 µM): 0.851
- relative viability (first compound 0.03162 µM): 0.865
- relative viability (first compound 0.1 µM): 0.967
- relative viability (first compound 0.3162 µM): 0.939
- relative viability (first compound 1 µM): 0.933

Cell Line: HCC-15
- relative viability (first compound 0.01 µM): 0.968
- relative viability (first compound 0.03162 µM): 1.06
- relative viability (first compound 0.1 µM): 0.963
- relative viability (first compound 0.3162 µM): 0.951
- relative viability (first compound 1 µM): 0.916

Cell Line: NCI-H2405
- relative viability (first compound 0.01 µM): 1.02
- relative viability (first compound 0.03162 µM): 1.07
- relative viability (first compound 0.1 µM): 0.976
- relative viability (first compound 0.3162 µM): 0.886
- relative viability (first compound 1 µM): 0.82

Cell Line: LXF-289
- relative viability (first compound 0.01 µM): 1.04
- relative viability (first compound 0.03162 µM): 1.01
- relative viability (first compound 0.1 µM): 1.02
- relative viability (first compound 0.3162 µM): 1.04
- relative viability (first compound 1 µM): 0.968

Cell Line: CAL-12T
- relative viability (first compound 0.01 µM): 1.32
- relative viability (first compound 0.03162 µM): 1.2
- relative viability (first compound 0.1 µM): 1.1
- relative viability (first compound 0.3162 µM): 1.1
- relative viability (first compound 1 µM): 0.838

Cell Line: COR-L23
- relative viability (first compound 0.01 µM): 1.07
- relative viability (first compound 0.03162 µM): 1.15
- relative viability (first compound 0.1 µM): 0.937
- relative viability (first compound 0.3162 µM): 0.921
- relative viability (first compound 1 µM): 0.851

Cell Line: NCI-H1755
- relative viability (first compound 0.01 µM): 0.88
- relative viability (first compound 0.03162 µM): 0.983
- relative viability (first compound 0.1 µM): 0.9
- relative viability (first compound 0.3162 µM): 0.832
- relative viability (first compound 1 µM): 0.833

Cell Line: NCI-H1437
- relative viability (first compound 0.01 µM): 1.31
- relative viability (first compound 0.03162 µM): 1.2
- relative viability (first compound 0.1 µM): 1.21
- relative viability (first compound 0.3162 µM): 1.11
- relative viability (first compound 1 µM): 0.988

Cell Line: NCI-H2085
- relative viability (first compound 0.01 µM): 0.878
- relative viability (first compound 0.03162 µM): 0.925
- relative viability (first compound 0.1 µM): 0.906
- relative viability (first compound 0.3162 µM): 0.824
- relative viability (first compound 1 µM): 0.748

Cell Line: IA-LM
- relative viability (first compound 0.01 µM): 1.25
- relative viability (first compound 0.03162 µM): 1.17
- relative viability (first compound 0.1 µM): 0.917
- relative viability (first compound 0.3162 µM): 1.27
- relative viability (first compound 1 µM): 0.874

Cell Line: H3255
- relative viability (first compound 0.01 µM): 0.88
- relative viability (first compound 0.03162 µM): 0.818
- relative viability (first compound 0.1 µM): 0.867
- relative viability (first compound 0.3162 µM): 0.981
- relative viability (first compound 1 µM): 0.769

Cell Line: NCI-H650
- relative viability (first compound 0.01 µM): 1.02
- relative viability (first compound 0.03162 µM): 0.953
- relative viability (first compound 0.1 µM): 0.935
- relative viability (first compound 0.3162 µM): 0.796
- relative viability (first compound 1 µM): 0.853

Cell Line: LCLC-103H
- relative viability (first compound 0.01 µM): 0.677
- relative viability (first compound 0.03162 µM): 0.751
- relative viability (first compound 0.1 µM): 0.765
- relative viability (first compound 0.3162 µM): 0.766
- relative viability (first compound 1 µM): 0.759

Cell Line: LOU-NH91
- relative viability (first compound 0.01 µM): 0.945
- relative viability (first compound 0.03162 µM): 1.02
- relative viability (first compound 0.1 µM): 0.88
- relative viability (first compound 0.3162 µM): 1.04
- relative viability (first compound 1 µM): 0.999

Cell Line: NCI-H1650
- relative viability (first compound 0.01 µM): 1.12
- relative viability (first compound 0.03162 µM): 1.25
- relative viability (first compound 0.1 µM): 1.38
- relative viability (first compound 0.3162 µM): 1.19
- relative viability (first compound 1 µM): 0.971

Cell Line: NCI-H3122
- relative viability (first compound 0.01 µM): 1.01
- relative viability (first compound 0.03162 µM): 0.876
- relative viability (first compound 0.1 µM): 0.916
- relative viability (first compound 0.3162 µM): 0.902
- relative viability (first compound 1 µM): 0.929

Cell Line: PC-3 [JPC-3]
- relative viability (first compound 0.01 µM): 1.07
- relative viability (first compound 0.03162 µM): 1.03
- relative viability (first compound 0.1 µM): 0.999
- relative viability (first compound 0.3162 µM): 1.04
- relative viability (first compound 1 µM): 0.929

Cell Line: Calu-6
- relative viability (first compound 0.01 µM): 0.936
- relative viability (first compound 0.03162 µM): 0.989
- relative viability (first compound 0.1 µM): 0.808
- relative viability (first compound 0.3162 µM): 0.955
- relative viability (first compound 1 µM): 0.812

Cell Line: NCI-H1651
- relative viability (first compound 0.01 µM): 0.817
- relative viability (first compound 0.03162 µM): 0.88
- relative viability (first compound 0.1 µM): 0.906
- relative viability (first compound 0.3162 µM): 0.765
- relative viability (first compound 1 µM): 0.784

Cell Line: NCI-H2087
- relative viability (first compound 0.01 µM): 1.04
- relative viability (first compound 0.03162 µM): 1.03
- relative viability (first compound 0.1 µM): 1.02
- relative viability (first compound 0.3162 µM): 1.2
- relative viability (first compound 1 µM): 0.974
